Here are results for 36 compounds from patent US20230075856A1, “CYCLIC SULFAMIDE COMPOUNDS FOR TREATMENT OF HBV” (Assembly Biosciences, Inc., priority 2018, published 2023).

Some results are limits rather than exact numbers.

In one experiment the test system is HBV viral load production from HepAD38 cells. As to the kind of experiment: Viral production from HepAD38 cells: viral load in supernatant by qPCR of the HBV core sequence. It is filed as cell-based. The following applies: 5 days incubation, qPCR of supernatant HBV DNA vs DMSO control, read-out: viral load lowering EC50 (Activity). The essentials: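 HepAD38 cells seeded at 50,000/well in tetracycline-free medium with 2% FBS, treated with compounds (final top concentration 10 μM) for 5 days at 37 °C. Supernatant HBV DNA quantified by TaqMan qPCR of core sequence against HBV DNA standards, relative to DMSO controls; EC50 by four-parameter logistic fit.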
On the technique in general: Quantitative PCR measures a nucleic acid by following its amplification.
The term EC50 denotes the midpoint of the concentration-response curve. Take `Cc1cn(-c2ccccc2F)nc1CNC(=O)C1CC(C(=O)Nc2ccc(F)c(Cl)c2)N(C)S(=O)(=O)N1` (single isomer, unassigned) [1142-ISOMER-B, N3-(3-chloro-4-fluoro-phenyl)-N5-[[1-(2-fluorophenyl)-4-methyl-pyrazol-3-yl]methyl]-2-methyl-1,1-dioxo-1,2,6-thiadiazinane-3,5-dicarboxamide]: the EC50 lay within 100 to 10000 nM.

As for `Cc1cccc(CNC(=O)C2CC(C(=O)Nc3ccc(F)c(Cl)c3)N(C)S(=O)(=O)N2)n1` (single isomer, unassigned; isomer-b) [Compound 716-ISOMER-B, N3-(3-chloro-4-fluoro-phenyl)-2-methyl-N5-[(6-methyl-2-pyridyl)methyl]-1,1-dioxo-1,2,6-thiadiazinane-3,5-dicarboxamde], the EC50 lay within 100 to 10000 nM.

Regarding `Cc1nc(-c2ccc(F)cc2F)sc1CNC(=O)C1CC(C(=O)Nc2ccc(F)c(Cl)c2)N(C)S(=O)(=O)N1` (single isomer, unassigned; isomer-b) [1083-ISOMER-B, N3-(3-chloro-4-fluoro-phenyl)-N5-[[2-(2,4-difluroophenyl)-4-methyl-thiazol-5-yl]methyl]-2-methyl-1,1-dioxo-1,2,6-thiadiazinane-3,5-dicarboxamide], the EC50 lay in the range of 100 to 10000 nM.

Consider `Cc1cn(-c2ccc(F)cc2)nc1CNC(=O)C1CC(C(=O)Nc2ccc(F)c(Cl)c2)N(C)S(=O)(=O)N1` (single isomer, unassigned) [1141-ISOMER-B, N3-(3-chloro-4-fluoro-phenyl)-N5-[[1-(4-fluorophenyl)-4-methyl-pyrazol-3-yl]methyl]-2-methyl-1,1-dioxo-1,2,6-thiadiazinane-3,5-dicarboxamide], for which the EC50 was 100 to 10000 nM.

As to `COC(=O)N1CCC(NC(=O)C2CC(C(=O)Nc3ccc(F)c(Cl)c3)N(C)S(=O)(=O)N2)CC1` (single isomer, unassigned) [Compound 477-ISOMER-B, methyl 4-[[5-[(3-chloro-4-fluoro-phenyl)carbamoyl]-6-methyl-1,1-dioxo-1,2,6-thiadiazinane-3-carbonyl]amino]piperidine-1-carboxylate], the concentration for a half-maximal effect (EC50) lay within 100 to 10000 nM.

Take `Cc1ccccc1-c1nc(C)c(CNC(=O)C2CC(C(=O)Nc3ccc(F)c(Cl)c3)N(C)S(=O)(=O)N2)s1` (single isomer, unassigned) [1017-ISOMER-B, N3-(3-chloro-4-fluoro-phenyl)-2-methyl-N5-[[4-methyl-2-(o-tolyl)thiazol-5-yl]methyl]-1,1-dioxo-1,2,6-thiadiazinane-3,5-dicarboxamide]: the EC50 was in the range of 100 to 10000 nM.

As for `Cc1cn(-c2ccc(F)cc2F)nc1CNC(=O)C1CC(C(=O)Nc2ccc(F)c(Cl)c2)N(C)S(=O)(=O)N1` (single isomer, unassigned) [1144-ISOMER-B, N3-(3-chloro-4-fluoro-phenyl)-N5-[[1-(2,4-difluorophenyl)-4-methyl-pyrazol-3-yl]methyl]-2-methyl-1,1-dioxo-1,2,6-thiadiazinane-3,5-dicarboxamide], the EC50 was in the range of 100 to 10000 nM.

On to `COC(=O)N1CCC(NC(=O)C2CC(C(=O)Nc3ccc(F)c(Cl)c3)N(CC(F)(F)F)S(=O)(=O)N2)CC1` (single isomer, unassigned; isomer-b) [Compound 893-ISOMER-B, methyl 4-[[5-[(3-chloro-4-fluroo-phenyl)carbamoyl]-1,1-dioxo-6-(2,2,2-trifluoroethyl)-1,2,6-thiadiazinane-3-carbonyl]amino]piperidine-1-carboxylate], for which the EC50 fell in the range of 100 to 10000 nM.

`CN1C(C(=O)Nc2ccc(F)c(Cl)c2)CC(C(=O)NC2CCCc3nc(-c4ccc(OCCN5CCCCC5)cc4)sc32)NS1(=O)=O` (single isomer, unassigned; isomer-d) [Compound 948-ISOMER-D]: the EC50 was below 50 nM.

Staying with this experiment, now noted: Hepatitis B virus, HePAD38, 120 h, 5 days incubation, qPCR of supernatant HBV DNA vs DMSO control, read-out: viral load lowering EC50 (Activity).
`CN1C(C(=O)Nc2ccc(F)c(Cl)c2)CC(C(=O)NCc2cnc(-c3cscn3)s2)NS1(=O)=O` (single isomer, unassigned) [Compound 929-ISOMER-B, N3-(3-chloro-4-fluoro-phenyl)-2-methyl-1,1-dioxo-N5-[(2-thiazol-4-ylthiazol-5-yl)methyl]-1,2,6-thiadiazinane-3,5-dicarboxamide]: the EC50 is below 50 nM.

With `CC(=O)N1CCC(NC(=O)C2CC(C(=O)Nc3ccc(F)c(Cl)c3)N(C)S(=O)(=O)N2)CC1` (stereo not drawn) [Compound 851], the EC50 fell in the range of 100 to 10000 nM.

As for `CN1C(C(=O)Nc2ccc(F)c(Cl)c2)CC(C(=O)NCc2cnc(C3CCC(C)(C)C3)s2)NS1(=O)=O` (stereo not drawn) [Compound 1159], the EC50 is 100 to 10000 nM.

Turning to `CN1C(C(=O)Nc2ccc(F)c(Cl)c2)CC(C(=O)NCc2cnc(-c3ccc(O)cc3)s2)NS1(=O)=O` (stereo not drawn) [Compound 924], the EC50 is below 50 nM.

Take `Cc1c(CNC(=O)C2CC(C(=O)Nc3ccc(F)c(C#N)c3)N(C)S(=O)(=O)N2)cnn1C` (stereo not drawn) [Compound 838]: the EC50 fell in the range of 100 to 10000 nM.

`CN1C(C(=O)Nc2ccc(F)c(Cl)c2)CC(C(=O)NCc2cnc(-c3ccc(OCCCN4CCSCC4)cc3)s2)NS1(=O)=O` (single isomer, unassigned) [Compound 925-ISOMER-A, N3-(3-chloro-4-fluoro-phenyl)-2-methyl-1,1-dioxo-N5-[[2-[4-(3-thiomorpholinopropoxy)phenyl]thiazol-5-yl]methyl]-1,2,6-thiadiazinane-3,5-dicarboxamide]: the EC50 is below 50 nM.

Take `CN1C(C(=O)Nc2ccc(F)c(C#N)c2)CC(C(=O)NCc2ccc(Cl)cc2)NS1(=O)=O` (stereo not drawn) [Compound 836]: the EC50 lay within 50 to 100 nM.

As to `CN1C(C(=O)Nc2ccc(F)c(C#N)c2)CC(C(=O)NCc2nc3ccccc3s2)NS1(=O)=O` (stereo not drawn) [Compound 866], the EC50 was in the range of 100 to 10000 nM.

Take `Cc1nc(-c2ccccc2)sc1CNC(=O)C1CC(C(=O)Nc2ccc(F)c(Cl)c2)N(C)S(=O)(=O)N1` (stereo not drawn) [Compound 914]: the 50% effective concentration (EC50) is below 50 nM.

As to `CN1C(C(=O)Nc2ccc(F)c(Cl)c2)CC(C(=O)NCc2cnc(-c3ccccn3)s2)NS1(=O)=O` (stereo not drawn) [Compound 1162], the 50% effective concentration (EC50) is below 50 nM.

Take `CN1C(C(=O)Nc2ccc(F)c(Cl)c2)CC(C(=O)NCc2ccn(-c3ccccc3)n2)NS1(=O)=O` (single isomer, unassigned) [Compound 991-ISOMER-A, N3-(3-chloro-4-fluoro-phenyl)-2-methyl-1,1-dioxo-N5-[(1-phenylpyrazol-3-yl)methyl]-1,2,6-thiadiazinane-3,5-dicarboxamide]: the EC50 is 100 to 10000 nM.

Consider `Cc1cn(-c2ccccc2)nc1CNC(=O)C1CC(C(=O)Nc2ccc(F)c(Cl)c2)N(C)S(=O)(=O)N1` (stereo not drawn) [Compound 1057], for which the EC50 was below 50 nM.

For `Cc1nc(CNC(=O)C2CC(C(=O)Nc3ccc(F)c(Cl)c3)N(C)S(=O)(=O)N2)sc1Br` (stereo not drawn) [Compound 1069], the EC50 is below 50 nM.

For the compound `CN1C(C(=O)Nc2ccc(F)c(Cl)c2)CC(C(=O)NCc2cnc(-c3ccccc3Cl)s2)NS1(=O)=O` (stereo not drawn) [Compound 912], the EC50 is below 50 nM.

As for `Cc1nc(-c2ccc(OCCN3CCCCC3)cc2)sc1CNC(=O)C1CC(C(=O)Nc2ccc(F)c(Cl)c2)N(C)S(=O)(=O)N1` (single isomer, unassigned) [1087-ISOMER-A, N3-(3-chloro-4-fluoro-phenyl)-2-methyl-N5-[[4-methyl-2-[4-[2-(1-piperidyl)ethoxy]phenyl]thiazol-5-yl]methyl]-1,1-dioxo-1,2,6-thiadiazinane-3,5-dicarboxamide], the EC50 was below 50 nM.

`CN1C(C(=O)Nc2ccc(F)c(Cl)c2)CC(C(=O)NC2CCCc3nc(-c4ccc(OCCN5CCCCC5)cc4)sc32)NS1(=O)=O` (single isomer, unassigned) [Compound 948-ISOMER-A]: the EC50 is below 50 nM.

As to `CN1CCC(Oc2ccc(-c3ncc(CNC(=O)C4CC(C(=O)Nc5ccc(F)c(Cl)c5)N(C)S(=O)(=O)N4)s3)cc2)CC1` (stereo not drawn) [Compound 979], the EC50 is below 50 nM.

As for `CN1C(C(=O)Nc2ccc(F)c(Cl)c2)CC(C(=O)NC2CCN(c3ccnc(-c4cn(C)cn4)c3)CC2)NS1(=O)=O` (stereo not drawn) [Compound 1052], the EC50 is below 50 nM.

Regarding `Cc1nc(-c2ccccc2Cl)sc1CNC(=O)C1CC(C(=O)Nc2ccc(F)c(Cl)c2)N(C)S(=O)(=O)N1` (stereo not drawn) [Compound 1015], the EC50 was below 50 nM.

For `CN1C(C(=O)Nc2ccc(F)c(Cl)c2)CC(C(=O)NCc2ccccc2N2CCOCC2)NS1(=O)=O` (stereo not drawn) [Compound 907], the EC50 was 50 to 100 nM.

With `C[C@@H](NC(=O)C1CC(C(=O)Nc2ccc(F)c(Cl)c2)N(C)S(=O)(=O)N1)c1ccc(F)cc1` (single isomer, unassigned) [Compound 493-R], the EC50 was below 50 nM.

Regarding `COc1ccc(-c2ncc(CNC(=O)C3CC(C(=O)Nc4ccc(F)c(Cl)c4)N(C)S(=O)(=O)N3)s2)cc1` (stereo not drawn) [Compound 932], the EC50 is below 50 nM.

For the compound `CN1C(C(=O)Nc2ccc(F)c(Cl)c2)CC(C(=O)NC2CCCc3nc(-c4ccccc4Cl)sc32)NS1(=O)=O` (stereo not drawn) [Compound 1018], the EC50 was below 50 nM.

Regarding `CN1C(C(=O)Nc2ccc(F)c(Cl)c2)CC(C(=O)NCc2cnc(C(F)(F)F)s2)NS1(=O)=O` (stereo not drawn) [Compound 498], the EC50 lay in the range of 100 to 10000 nM.

As to `Cc1cccc(CNC(=O)C2CC(C(=O)Nc3ccc(F)c(Cl)c3)N(C)S(=O)(=O)N2)n1` (single isomer, unassigned) [Compound 716-ISOMER-A, N3-(3-chloro-4-fluoro-phenyl)-2-methyl-N5-[(6-methyl-2-pyridyl)methyl]-1,1-dioxo-1,2,6-thiadiazinane-3,5-dicarboxamide], the EC50 was below 50 nM.

Turning to `CN1C(C(=O)Nc2ccc(F)c(Cl)c2)CC(C(=O)NCc2sc(-c3ccccc3F)nc2C(F)(F)F)NS1(=O)=O` (single isomer, unassigned) [1082-ISOMER-A, N3-(3-chloro-4-fluoro-phenyl)-N5-[[2-(2-fluorophenyl)-4-(trifluoromethyl)thiazol-5-yl]methyl]-2-methyl-1,1-dioxo-1,2,6-thiadiazinane-3,5-dicarboxamide], the half-maximal effective concentration (EC50) was below 50 nM.

With `Cc1cc(CNC(=O)C2CC(C(=O)Nc3ccc(F)c(Cl)c3)N(C)S(=O)(=O)N2)on1` (stereo not drawn) [Compound 489], the EC50 is 50 to 100 nM.
